Values quoted from earlier work in patent US5786344A, “Camptothecin drug combinations and methods with reduced side effects” (priority 1995, dated 1998).
“Also recorded” adds a separate entry of the source.

Tests used:
tumors = details: preclinical and clinical tumors; cited from earlier work
[1] = rats, cited from earlier work
[2] = human, in vivo; cited from earlier work
[3] = cited from earlier work

Compound: CCc1c2c(nc3ccc(OC(=O)N4CCC(N5CCCCC5)CC4)cc13)-c1cc3c(c(=O)n1C2)COC(=O)[C@]3(O)CC [CPT-11, 7-ethyl-10-[4-(1-piperidino)-1-piperidino)carbonyloxycamptot hecin]
- antitumor activity (tumors): significant activity in a broad spectrum of in vitro and in vivo tumor models; also recorded: antitumor activity in phase II trials
- biliary radioactivity excreted over 24 h as ([1]; 24 h): 55%
- biliary radioactivity reabsorbed from the intestine [1]: approximately 18%
- DLT in Phase I studies in Japan and Europe/US [2]: either myelosuppression or diarrhea
- route of excretion ([3]; animal studies): equally excreted into bile and urine
- dose eliminated in the urine ([3]; rats, % of CPT-11 dose): about 20%
